One assay deals with EGFR(L858R) (Homo sapiens, UniProt P00533, L858R). As to conditions: 10 μM.
In a further assay the target is EGFR(T790M) (Homo sapiens, UniProt P00533, T790M). To be noted: 10 μM.
The target of assay [1] is ABL1(H396P)-phosphorylated (Homo sapiens, UniProt P00519, H396P). In words: biochemical. To be noted: read-out: Percent control.
Another assay concerns the target T1, DDR2 (Homo sapiens, UniProt Q16832).
T1 sequence (Q16832 22-855): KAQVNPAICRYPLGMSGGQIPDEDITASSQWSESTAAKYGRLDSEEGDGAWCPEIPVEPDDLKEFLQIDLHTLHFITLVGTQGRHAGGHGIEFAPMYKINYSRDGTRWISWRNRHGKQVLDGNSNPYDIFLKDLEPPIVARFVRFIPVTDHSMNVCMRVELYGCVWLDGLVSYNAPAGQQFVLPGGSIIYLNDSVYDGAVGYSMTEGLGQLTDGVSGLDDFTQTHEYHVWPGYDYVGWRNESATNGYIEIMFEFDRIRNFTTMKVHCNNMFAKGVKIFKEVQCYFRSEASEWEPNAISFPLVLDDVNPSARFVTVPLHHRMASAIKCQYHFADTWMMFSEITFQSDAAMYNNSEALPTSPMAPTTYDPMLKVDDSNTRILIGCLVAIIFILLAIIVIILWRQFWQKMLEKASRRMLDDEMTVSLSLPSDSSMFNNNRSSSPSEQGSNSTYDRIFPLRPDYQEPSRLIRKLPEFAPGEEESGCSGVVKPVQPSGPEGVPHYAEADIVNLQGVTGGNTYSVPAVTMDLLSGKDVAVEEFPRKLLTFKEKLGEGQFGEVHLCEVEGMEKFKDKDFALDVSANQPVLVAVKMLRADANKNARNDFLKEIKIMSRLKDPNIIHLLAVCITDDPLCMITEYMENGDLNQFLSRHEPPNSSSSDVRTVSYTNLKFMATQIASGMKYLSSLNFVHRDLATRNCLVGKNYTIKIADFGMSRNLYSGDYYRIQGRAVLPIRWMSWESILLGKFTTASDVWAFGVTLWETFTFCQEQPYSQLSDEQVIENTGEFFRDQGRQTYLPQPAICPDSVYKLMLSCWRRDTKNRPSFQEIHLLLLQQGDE
In words: biochemical. As to conditions: read-out: Percent control.

Chain of EGFR(T790M) (P00533 25-1210 T790M): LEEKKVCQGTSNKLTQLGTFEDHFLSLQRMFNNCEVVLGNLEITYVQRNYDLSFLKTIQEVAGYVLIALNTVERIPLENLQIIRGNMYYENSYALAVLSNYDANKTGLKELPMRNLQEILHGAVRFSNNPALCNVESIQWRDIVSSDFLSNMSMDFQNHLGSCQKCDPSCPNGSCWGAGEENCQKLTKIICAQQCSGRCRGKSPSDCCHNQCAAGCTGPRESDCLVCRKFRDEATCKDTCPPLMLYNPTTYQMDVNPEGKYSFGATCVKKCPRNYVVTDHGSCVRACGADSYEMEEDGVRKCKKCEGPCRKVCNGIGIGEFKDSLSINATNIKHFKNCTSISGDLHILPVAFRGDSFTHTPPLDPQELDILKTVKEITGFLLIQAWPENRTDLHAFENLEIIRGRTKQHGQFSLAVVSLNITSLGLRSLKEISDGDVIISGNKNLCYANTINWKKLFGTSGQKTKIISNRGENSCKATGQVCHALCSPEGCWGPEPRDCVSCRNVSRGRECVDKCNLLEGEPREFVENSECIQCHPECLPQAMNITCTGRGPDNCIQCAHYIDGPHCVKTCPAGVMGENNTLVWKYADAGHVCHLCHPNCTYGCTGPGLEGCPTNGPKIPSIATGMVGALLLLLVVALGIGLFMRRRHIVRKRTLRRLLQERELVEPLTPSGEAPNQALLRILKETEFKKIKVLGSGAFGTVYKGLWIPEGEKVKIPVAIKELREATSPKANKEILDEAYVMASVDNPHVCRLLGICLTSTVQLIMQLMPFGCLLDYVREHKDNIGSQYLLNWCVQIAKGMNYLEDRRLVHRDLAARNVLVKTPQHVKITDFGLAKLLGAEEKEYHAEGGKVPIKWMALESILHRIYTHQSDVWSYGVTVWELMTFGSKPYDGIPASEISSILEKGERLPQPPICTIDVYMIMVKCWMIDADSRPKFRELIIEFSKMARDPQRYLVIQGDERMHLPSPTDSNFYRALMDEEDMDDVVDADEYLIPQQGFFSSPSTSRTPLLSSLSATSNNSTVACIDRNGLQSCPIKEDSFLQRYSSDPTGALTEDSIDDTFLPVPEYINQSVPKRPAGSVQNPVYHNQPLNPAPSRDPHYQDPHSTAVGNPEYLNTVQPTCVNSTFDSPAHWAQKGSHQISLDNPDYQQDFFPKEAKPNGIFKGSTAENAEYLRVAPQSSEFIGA
Chain of EGFR(L858R) (P00533 25-1210 L858R): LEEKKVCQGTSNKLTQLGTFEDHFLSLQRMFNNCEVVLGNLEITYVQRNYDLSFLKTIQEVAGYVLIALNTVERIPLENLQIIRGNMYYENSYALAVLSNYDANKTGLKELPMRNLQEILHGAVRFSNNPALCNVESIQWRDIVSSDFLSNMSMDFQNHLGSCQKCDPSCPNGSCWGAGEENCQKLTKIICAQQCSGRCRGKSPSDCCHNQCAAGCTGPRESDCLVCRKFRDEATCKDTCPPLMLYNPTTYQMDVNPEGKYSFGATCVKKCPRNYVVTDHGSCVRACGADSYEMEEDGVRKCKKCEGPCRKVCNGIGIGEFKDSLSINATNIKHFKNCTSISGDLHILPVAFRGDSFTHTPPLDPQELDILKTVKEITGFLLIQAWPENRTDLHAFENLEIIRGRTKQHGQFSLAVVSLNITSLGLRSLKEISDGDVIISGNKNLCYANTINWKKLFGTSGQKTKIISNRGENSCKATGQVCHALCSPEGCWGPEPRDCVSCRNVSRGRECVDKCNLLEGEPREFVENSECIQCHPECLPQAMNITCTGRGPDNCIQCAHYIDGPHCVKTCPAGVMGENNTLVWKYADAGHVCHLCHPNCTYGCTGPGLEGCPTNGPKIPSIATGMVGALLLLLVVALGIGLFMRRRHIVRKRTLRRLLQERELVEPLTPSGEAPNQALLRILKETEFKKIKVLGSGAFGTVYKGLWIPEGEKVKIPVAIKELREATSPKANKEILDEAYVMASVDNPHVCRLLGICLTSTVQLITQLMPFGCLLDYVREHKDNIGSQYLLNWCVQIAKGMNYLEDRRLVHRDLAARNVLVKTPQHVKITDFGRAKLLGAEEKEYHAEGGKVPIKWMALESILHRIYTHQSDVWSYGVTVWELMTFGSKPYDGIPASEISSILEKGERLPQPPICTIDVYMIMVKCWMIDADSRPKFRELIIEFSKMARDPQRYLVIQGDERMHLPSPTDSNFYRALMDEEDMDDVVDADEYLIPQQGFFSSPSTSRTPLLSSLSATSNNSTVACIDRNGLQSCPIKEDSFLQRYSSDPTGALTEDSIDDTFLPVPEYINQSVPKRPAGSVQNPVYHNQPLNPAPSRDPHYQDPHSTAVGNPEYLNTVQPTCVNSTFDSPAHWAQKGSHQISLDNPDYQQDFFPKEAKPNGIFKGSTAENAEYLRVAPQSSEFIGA

On to `Cc1ccc(NC(=O)c2ccc(CN3CCN(C)CC3)cc2)cc1Nc1nccc(-c2cccnc2)[n+]1[Pt-2]1([Cl])[NH2+]C2CCCCC2[NH2+]1` (stereo not shown) [1b, oxaliplatin-imatinib], for which the figures for the Percent control at EGFR(L858R) and at EGFR(T790M) were 81% and 78%, respectively. As for `C#Cc1cccc(Nc2ncnc3cc(OCCOC)c(OCCOC)cc23)c1` [Erlotinib], the remaining activity at 10 µM in assay [1] was 0.6%. As to `COc1cc2c(Nc3ccc(Br)cc3F)ncnc2cc1OCC1CCN(C)CC1` [Vandetanib, reference compound], the remaining activity at 10 µM at DDR2 is 3.1%.

Values taken from paper PMC4858680, “A platinum-based hybrid drug design approach to circumvent acquired resistance to molecular targeted tyrosine kinase inhibitors” (Scientific Reports, 2016).
